According to EP1145714A1, “DRUGS” (Takeda Chemical Industries, Ltd., priority 1998, dated 2000):

Test system: acute vomiting induced by a central emetic agent loperamide in dogs
Test: Acute vomiting induced by loperamide in dogs
Assay type: in vivo, beagle dogs
Conditions: loperamide 1 mg/kg subcutaneous
Experimental: 3 male or female beagle dogs (7.7 to 12.7 kg) per one group were used. Loperamide was subcutaneously given at 1 mg/ml/kg. 2.5 hours prior to loperamide administration, a small amount of a feed was given to the animals. 30 minutes thereafter, predetermined doses of the compound No. 3 were orally given. Similarly, 0.5 % methyl cellulose solution was orally given to a control animal group under no fasting. Predetermined doses of naloxone and ondansetron were given intravenously and orally, respectively to the animals under fasting, 30 minutes prior to loperamide administration. The frequency of vomiting was counted, up to 3 hours after loperamide administration. The compound No. 3 was dissolved in 0.5 % methyl cellulose solution, for oral dosing at a ratio of 0.25 to 1 ml per 1 kg body weight. Additionally, naloxone was intravenously given in a solution at a concentration of 0.05 % w/v. An injection of ondansetron at a concentration of 0.2 % w/v was orally given. Still additionally, 0.5 % methyl cellulose solution was orally given at a ratio of 1 ml per 1 kg body weight. The data relating to the frequency of vomiting, the latency and the time period from the occurrence of vomiting to the termination thereof were statistically analyzed by the Dunnett test, with reference to the difference from the control group.
The vomiting suppression ratio was calculated by the following formula. [Frequency of retching or vomiting in control] - [Frequency of retching or vomiting in animals dosed with compound No. 3] / [frequency of retching or vomiting in control] x 100 (%) [formula]

For C=CCN1CC[C@]23c4c5ccc(O)c4O[C@H]2C(=O)CC[C@@]3(O)[C@H]1C5 [Naloxone, naloxone, reference compound], the Vomiting suppression ratio (0.5 mg/kg i.v.) was 93 % b, the “B: Frequency of vomiting (mean ± SD)” value (0.5 mg/kg i.v., 3 hours) was 0.7 ± 0.7 b and the “C: Time period until first vomiting (minute; mean ± SD)” value (0.5 mg/kg i.v., 3 hours) was 2.61± 0.39b minute. For the same compound, the “D: Duration of vomiting (minute; mean ± SD)” value (0.5 mg/kg i.v., 3 hours) was 0.01 ± 0.01 b minute, the “Number of dogs with vomiting/number of tested dogs” value (0.5 mg/kg i.v., 3 hours) was 1/3 and the “Effect on vomiting (in words)” value (0.5 mg/kg intravenous) was “almost completely suppressed”.
